Data published in US7196057B2, “Fusion proteins for insect control” (University of Durham, priority 2001, dated 2007).
Entries after “also recorded” stand apart in the source; their conditions may differ.

Experiments:
[1] = system: Vth stadium L. oleracea larvae; experiment: Insect bioassay 1: artificial diet feeding, 24 h; type: in vivo, Lacanobia oleracea; conditions: 1.5% of dietary protein (1.5 mg/5 g diet), 24 h exposure, n=7
Protocol: (§1) A potato leaf based artificial diet (24) was used to assay recombinant proteins against newly moulted Vth stadium L. oleracea which were starved for 24 h prior to exposure to diets. To encourage feeding, sucrose was incorporated at 0.05% (w/w) in assays 2 A and B and at 0.5% (w/w) in assay 3. Individual larvae were maintained in clear plastic pots containing moist filter paper to prevent diet desiccation. Larval wet weights (−/+0.1 mg) were recorded before, during, and after exposure to treatments, and diet consumption was estimated on a wet weight basis. The amounts of recombinant proteins added to diets were based on activity values derived from agglutination assays. Larvae (n=7 per treatment) were exposed to control diet; control diet containing ammonia (0.0002 v/w); diet containing recombinant GNA at a concentration of approx. 1.5% (w/w) of dietary protein (1.5 mg/5 g diet wet weight) and diet containing recombinant FP at a concentration of approx. 1.5% (w/w) of dietary protein for 24 h.

[2] = system: Vth instar L. oleracea larvae; experiment: Insect bioassay 2A: artificial diet feeding, 3 days; type: in vivo, Lacanobia oleracea; conditions: 0.5% of dietary protein (0.5 mg/5 g diet), 3 days exposure, n=8
Protocol: as §1, with “assays.” for “assays. Larvae (n=7 per treatment) were exposed to control diet; control diet containing ammonia (0.0002 v/w); diet containing recombinant GNA at a concentration of approx. 1.5% (w/w) of dietary protein (1.5 mg/5 g diet wet weight) and diet containing recombinant FP at a concentration of approx. 1.5% (w/w) of dietary protein for 24 h.”
Larvae (n=8 per treatment) were exposed for 3 days to control diet; control diet containing ammonia; diet containing native GNA at approx. 0.5% (w/w) of dietary protein: diet containing native GNA and synthetic Manse-AS at a total concentration of approx. 0.5% (w/w) (i.e. ratio of GNA: Manse-AS equivalent to FP and diet containing FP at approx. 0.5% (w/w) of dietary protein.

## GNA: Galanthus nivalis agglutinin (snowdrop lectin); standard GNA obtained from Vector Laboratories
[1]
  mean increase/decrease in weight of larvae: more than 50%
[2]
  increase/decrease in mean wet weight of larvae: four fold increase in weight; also recorded: fourfold increase in weight

## recombinant GNA: Galanthus nivalis agglutinin (snowdrop lectin), 109 residues, expressed in E. coli with N-terminal His tag, SEQ ID NO: 2
[1]
  mean increase/decrease in weight of larvae: more than 50%
